Consider one molecule from patent US20120282346A1, “BRIMONIDINE COMPOSITIONS FOR TREATING ERYTHEMA” (priority 2007, published 2012).

Structures are written as SMILES.

This assay deals with erythema. The note with it: high dosage gel (0.20% by weight brimonidine tartrate), applied topically each day for 28 days; across all visits (days 1, 14, 28), evaluated up to eight hours; patients with moderate to severe erythema; p<0.001. Here is the method:
A double-blind, placebo-controlled study was conducted at six centers of 110 patients with moderate to severe erythema. […] On days 1, 14, and 28, patients applied the gel under the supervision of clinical staff in the study centers, and were evaluated at set intervals for up to eight hours.
Evaluation led to a Clinician's Erythema Assessment Score (CEA). Each patients' erythema was rated on a scale from 0 to 4, with 0 being the rating for no erythema and 4 being the rating for extreme erythema.
Also, a side effect profile was established.

Turning to `Brc1c(N=C2NCCN2)ccc2nccnc12.O=C(O)C(O)C(O)C(=O)O` [brimonidine tartrate, 5-bromo-6-(2-imidazolidinylideneamino) quinoxaline L-tartrate], the “reduction in the average CEA (Clinician's Erythema Assessment Score, scale 0 to 4)” value is “statistically significant reduction”.
